The results in this text go back to ChEMBL document CHEMBL5260825, “Chemical Constituents of Bryophytes: Structures and Biological Activity” (J Nat Prod, 2018).

The IC50 is the concentration that inhibits the measured activity by half. The term inhibition denotes the share of the control response that was lost under treatment.

For one test, the species on record is Rattus norvegicus. Put plainly: Inhibition of iron-induced lipid peroxidation in rat liver microsomes in presence of NADPH. It is filed as functional, Microsome. In general terms: Microsomes from liver hold many membrane-bound enzymes, among them those of drug oxidation.
In the next test the test system is HepG2. Put plainly: Antiproliferative activity against human HepG2 cells assessed as cell growth inhibition. It is filed as functional, cell-based.
In test [1] the target is T1, Polyunsaturated fatty acid 5-lipoxygenase (Homo sapiens) (UniProt P09917).
T1 sequence (whole entry): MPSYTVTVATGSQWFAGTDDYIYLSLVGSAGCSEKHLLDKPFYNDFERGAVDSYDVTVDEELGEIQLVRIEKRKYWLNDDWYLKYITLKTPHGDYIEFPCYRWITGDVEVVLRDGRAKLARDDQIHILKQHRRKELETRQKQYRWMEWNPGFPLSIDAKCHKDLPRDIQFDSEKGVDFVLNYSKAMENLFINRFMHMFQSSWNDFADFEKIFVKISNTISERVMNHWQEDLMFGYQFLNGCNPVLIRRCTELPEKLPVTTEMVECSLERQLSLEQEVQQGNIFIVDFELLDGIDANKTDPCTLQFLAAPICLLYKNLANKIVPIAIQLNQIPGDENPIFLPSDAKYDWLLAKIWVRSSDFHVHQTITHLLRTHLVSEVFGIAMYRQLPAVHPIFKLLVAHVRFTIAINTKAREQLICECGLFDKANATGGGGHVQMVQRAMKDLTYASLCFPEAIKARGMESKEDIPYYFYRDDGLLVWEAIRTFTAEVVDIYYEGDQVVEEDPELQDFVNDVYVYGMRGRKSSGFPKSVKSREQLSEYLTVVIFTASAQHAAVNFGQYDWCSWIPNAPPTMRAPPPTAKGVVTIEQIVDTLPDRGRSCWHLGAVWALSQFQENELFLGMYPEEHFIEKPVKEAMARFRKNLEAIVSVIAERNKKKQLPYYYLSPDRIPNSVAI
Put plainly: Inhibition of ALOX5 (unknown origin) assessed as reduction in calmodulin level.

A further test is filed under the species Homo sapiens. Briefly: Antagonist activity at vasopressin (unknown origin). The conditions noted are these: filed as antagonist.
Test [2] concerns Candida albicans. Put plainly: Antifungal activity against Candida albicans assessed as inhibition of fungal growth by bioautographic TLC method. It is filed as functional.
The test system of a further test is Cladosporium cucumerinum. Put plainly: Antifungal activity against Cladosporium cucumerinum assessed as inhibition of microbial growth by bioautographic TLC method. It is filed as functional.
Test [3] concerns Candida albicans. Briefly: Antifungal activity against Candida albican ATCC10231 assessed as inhibition of fungal growth by microdilution method. It is filed as functional. (Dilution methods test growth across graded concentrations, often in twofold steps.)
Test [4] deals with Candida albicans. Put plainly: Antifungal activity against Candida albican ATCC10231 assessed as inhibition of fungal growth by measuring minimal inhibitory quantity by microdilution method. It is filed as functional.
Test [5] is described as follows: Antiplatelet activity against arachidonate-induced rabbit platelet assessed as inhibition of platelet aggregation at 100 ug/ml relative to control. It is filed as functional. As to conditions: Oryctolagus cuniculus.
A short description of test [6]: Antiplatelet activity against collagen-induced rabbit platelet assessed as inhibition of platelet aggregation at 100 ug/ml relative to control. It is filed as functional. The conditions noted are these: Oryctolagus cuniculus.
Test [7] in a line: Antiplatelet activity against arachidonate-induced rabbit platelet assessed as inhibition of platelet aggregation at 50 ug/ml relative to control. It is filed as functional. The conditions noted are these: Oryctolagus cuniculus.
A further test deals with KB. Put plainly: Antiproliferative activity against human KB cells assessed as cell growth inhibition. It is filed as functional, cell-based.
Test [8] is described as follows: Antiproliferative activity against human Lu1 cells assessed as cell growth inhibition. It is filed as functional, cell-based.
Test [9] is described as follows: Antiproliferative activity against human KBV cells assessed as cell growth inhibition. It is filed as functional, cell-based.
The subject of the next test is LNCaP. Briefly: Antiproliferative activity against human LNCaP cells assessed as cell growth inhibition. It is filed as functional, cell-based.
The next test concerns ZR-75-1. Briefly: Antiproliferative activity against human ZR-75-1 cells assessed as cell growth inhibition. It is filed as functional, cell-based.
The next test deals with Streptococcus mutans. Briefly: Antibacterial activity against Streptococcus mutans assessed as lethal dose. It is filed as functional. As to conditions: read-out: LD50 (the source's name).

Values after ≈ are worked out from the molar mass of the structure shown.

`Oc1ccc2cc1Oc1ccc(cc1)CCc1cc(O)c(O)c(c1)Oc1cccc(c1)CC2`: the IC50 in the test listed under Rattus norvegicus was 0.32 µM.

On to `CC1(C)[C@H]2C[C@H](OC(=O)/C=C/c3ccc(O)cc3)[C@]1(C)C[C@H]2O`, for which the IC50 in the test with HepG2 was determined as 4.5 µg/mL (≈ 14.2 µM).

In the case of `CC(C)=CCc1c(CCc2ccccc2)cc(O)c(O)c1O`, the ID50 in test [1] was found to be 2 µg/mL (≈ 6.7 µM); in the test listed under Homo sapiens it was 27 µg/mL (≈ 90.5 µM).

For the compound `C=C1CC[C@H]2C(=C)CC[C@H]3C(=C)C(=O)O[C@@H]3[C@@H]12` [DEHYDROCOSTUSLACTONE], the MIC in the test on Candida albicans [2] was 5 µg/mL (≈ 21.7 µM); in the test on Cladosporium cucumerinum, 0.5 µg/mL.

`Oc1cc2ccc1Oc1cccc(c1)CCc1ccc(cc1)Oc1cc(ccc1O)CC2`: the MIC came out at 16 µg/mL with Candida albicans [3] and 0.25 µg in the test on Candida albicans [4].

With `C=C(C)[C@H]1CC=C2C(=O)O[C@H]3C=C(C)[C@H](OO)[C@@H]1[C@@H]23`, the inhibition at 100 µg/mL in [5] turned out to be 50%; in test [6] it was 93%.

In the case of `C=C1CC[C@H]2[C@@H]([C@H]3C(COC(C)=O)=CO[C@H](OC(C)=O)[C@@H]13)C2(C)C`, the inhibition at 100 µg/mL turned out to be 95% in test [5] and 100% in test [6]. In addition, the inhibition at 50 µg/mL in test [7] turned out to be 45%.

On to `CC(C)=CCC[C@]1(C)CCC[C@]2(C)[C@@H](C=O)C(C=O)=CC[C@@H]12`, for which the IC50 with KB is 3.2 µM; in test [8], 5.7 µM; in test [9], 2.7 µM; with LNCaP, 5.7 µM; in the test on ZR-75-1, 5.7 µM. The LC50 in the test on Streptococcus mutans was 8 µg/mL (≈ 26.4 µM).
